Data taken from publication PMC5462101 (Future medicinal chemistry, 2015).
“And” between values parts separate entries of the source, which are not always exact repeats. Equal values may be shown once.

Columns and labels:
[1] = system: carrageenin-induced rat paw edema; test: Inhibition of carrageenin-induced rat paw edema; format: in vivo, Fisher 344 rats
Protocol: The incipient pattern of this edema is characterized by the effects of histamine and 5-hydroxytryptamine. After 1 h, reduction of edema in the rat paw achieved by the pteridine 18f was appreciably greater than the reduction induced by the reference compound indomethacin, a nonselective COX-inhibitor and commonly used nonsteroidal anti-inflammatory drug. Thus, 18f and some related pteridines offer significant protection against reactive oxygen species produced in a model of colitis, probably on account of their properties as antioxidants and radical scavengers.
(§1) Fisher 344 rats (150-200 g) were housed in wire-mesh cages, given standard laboratory chow and tap water ad libitum and acclimatized for one week before experiments. Rats were randomly assigned to experimental groups. All in vivo experiments conform to the law for the protection of experimental animals (Republic of Greece) and are registered at the Veterinary Administration of the Republic of Greece in accordance with recognized guidelines on animal experimentation including Directive 2010/63/EU.
Inhibition of carrageenin-induced edema
Edema was induced in the right hind paw of Fisher 344 rats (150-200 g) by intradermal injection of aqueous carrageenin (0.1 mL, 2%). Pregnant females were excluded from the study, but both sexes were used. Each group comprised 6-15 rats which were bred and housed under standard conditions and received a diet of commercial food pellets and water ad libitum during maintenance but were entirely fasted during the experiment period. Each compound (0.01 mmol/kg body weight) was suspended in water to which had been added a few drops of Tween 80 and then the mixture was ground in a mortar prior to being administered intraperitoneally and simultaneously with the carrageenin injection. Rats were euthanized 1 h after injection, and the difference between the weight of the injected and non-injected paws was calculated for each animal. The change in paw weight was compared with that in control animals (treated with water) and the inhibition of the edema was expressed as a percentage (Table 4). […]

rat model of colitis = test: Acetic acid-induced colitis in the rat; format: in vivo, Fisher 344 rats; settings: 0.01 mmol/kg intrarectally, 4% acetic acid
Protocol: LOX has also been associated with inflammation and ulcerative colitis. In the present study, a model for colitis involving intracolonic administration of aqueous 4% acetic acid in the rat was used, leading to acute inflammatory reaction. Treated rats presented partial to diffuse petechial bleeding, single erosion and limited ulceration indicating an overall healing effect of the compounds. Substituted pteridines presenting a satisfactory combination of activities 5a, 18a, 18d and 18f were tested using this in vivo model characterized by diffuse exfoliated mucosa as well as multiple and extended erosion and ulcers of the colon (Table 3). No mortality was encountered.
as §1
Induction of colitis
Rats were anesthetized using pentobarbital (50 mg/kg ip) prior to administration with 1 mL of either vehicle (0.9% w/v saline) or the compound under study at doses 0.01mmol/kg intrarectally via a polyethylene cannula (fitted to a 1 mL syringe) with the tip inserted approximately 8 cm into the anus. Following 30 min pretreatment, 1 ml of 4% acetic acid was introduced into the colon intrarectally and, after exposure for 60 s, the excess fluid was withdrawn. The luminal content was then expelled by instillation of air (10 mL), the ligature was removed and the abdomen was sutured. Both groups of rats were allowed to recover with food and water and the resulting injury was assessed after 48 h. The experiment was conducted using two groups, each containing 3 animals.
Assessment of colonic damage. Rats were weighed, inspected for the presence of diarrhea and sacrificed using diethyl ether. The colons were excised and opened longitudinally, rinsed with cold saline, pinned out and observed under a dissecting microscope. Colonic damage was scored using the system of MacPherson and Pfeiffer: 0 – normal appearance, 1- hyperaemia, 2 – patchy petechial bleeding, 3 – diffuse petechial bleeding, 4 – partial exfoliated mucosa or single erosion or ulceration, 5 – diffuse exfoliated mucosa or multiple erosions or ulceration. The presence or absence of adhesions between the colon and the surrounding tissues was recorded. Scoring of the colonic damage (Table 4) was carried out by an observer unaware of the treatment.

CN1CCN(c2nc(NCc3cccs3)c3nccnc3n2)CC1 [Compound 18f, 2-(4-methylpiperazin-1-yl)-N-(thiophen-2-ylmethyl)pteridin-4-amine]
Greater reduction of edema in rat paw than indomethacin ([1]; 0.01 mmol/kg, relative to indomethacin): 60% | Reduction of rat paw edema after 1 h (%) ([1]; rat, 0.01 mmol/kg intraperitoneally, 1 h, mean of two experiments): 41% and 41 ^† % | Change in body weight (%) (rat model of colitis; assessed after 48 h): -10.7% | Score (levels 0–5) (rat model of colitis; colonic damage score, 48 h): All rats exhibited partial to diffuse exfoliated mucosa or single/multiple erosion or ulceration (4–5)
